Test results reported in paper PMC3361532 (2012).

Biological target: Abl (Homo sapiens, UniProt P00519)
Test: in vitro kinase assay with active recombinant Abl
Format: biochemical

Sequence of Abl (P00519 whole entry): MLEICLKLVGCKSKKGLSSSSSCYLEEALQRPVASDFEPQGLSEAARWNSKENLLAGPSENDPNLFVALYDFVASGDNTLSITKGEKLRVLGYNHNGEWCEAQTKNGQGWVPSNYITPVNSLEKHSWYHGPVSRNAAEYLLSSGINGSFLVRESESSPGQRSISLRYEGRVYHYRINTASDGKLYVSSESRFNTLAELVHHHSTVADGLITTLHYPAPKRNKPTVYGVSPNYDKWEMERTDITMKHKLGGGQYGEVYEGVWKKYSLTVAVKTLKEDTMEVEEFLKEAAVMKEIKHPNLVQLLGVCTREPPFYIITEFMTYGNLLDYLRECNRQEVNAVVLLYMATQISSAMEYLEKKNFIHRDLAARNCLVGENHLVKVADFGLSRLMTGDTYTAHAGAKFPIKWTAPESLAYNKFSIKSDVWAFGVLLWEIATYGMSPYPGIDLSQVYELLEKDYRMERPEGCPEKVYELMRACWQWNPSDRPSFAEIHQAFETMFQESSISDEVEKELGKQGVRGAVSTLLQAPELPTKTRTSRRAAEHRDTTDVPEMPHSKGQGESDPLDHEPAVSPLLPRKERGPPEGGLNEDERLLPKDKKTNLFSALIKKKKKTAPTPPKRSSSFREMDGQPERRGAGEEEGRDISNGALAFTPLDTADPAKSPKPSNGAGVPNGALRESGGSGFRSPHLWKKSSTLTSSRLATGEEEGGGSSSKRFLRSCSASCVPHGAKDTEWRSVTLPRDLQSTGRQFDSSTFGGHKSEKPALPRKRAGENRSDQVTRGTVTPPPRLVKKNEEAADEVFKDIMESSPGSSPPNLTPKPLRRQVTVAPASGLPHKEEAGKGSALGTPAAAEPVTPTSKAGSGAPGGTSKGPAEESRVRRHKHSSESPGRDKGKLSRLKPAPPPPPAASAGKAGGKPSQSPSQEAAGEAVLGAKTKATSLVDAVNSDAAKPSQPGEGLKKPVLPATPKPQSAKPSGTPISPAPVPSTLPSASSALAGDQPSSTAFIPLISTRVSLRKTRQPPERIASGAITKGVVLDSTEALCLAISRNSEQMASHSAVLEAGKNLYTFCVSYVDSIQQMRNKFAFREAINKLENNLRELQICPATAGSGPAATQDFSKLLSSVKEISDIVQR

In the case of O=C1Nc2ccccc2C1=C1Nc2ccccc2C1=NOCC(O)CO (stereo not shown) [E804], the IC50 is reported as 8.7 µM.
